# Experimental data taken from patent US20090263324A1, “Animal Model With Induced Arrhythmia” (priority 2005, published 2009).
# Experiments:
# [1] = system: chronic atrioventricular block monkeys; test: Evaluation of QT interval prolongation by dl-sotalol (Holter electrocardiogram); format: in vivo, cynomolgus monkey; settings: oral administration of 5 mg/kg
# Text: QTc interval (ms) is a value obtained by correcting the fluctuation of QT interval due to heart rate by a numerical formula, and can be obtained by the following equation.
# QTc=QT÷^3√{square root over ( )} (60÷ventricular rhythm)
# Here, ventricular rhythm refers to the frequency of excitation of the ventricle in a complete atrioventricular block, and the unit of measurement is beat/minute.
# Next, a comparison is made between the QT interval or QTc interval in the recipient animal and the QT interval or QTc interval in the same animal but before administration. QT interval or QTc interval prolongation can be determined by (value after administration)−(value before administration).
# As the control solution, 0.5% methylcellulose solution was orally administered, and changes of electrocardiogram were examined; on a later day, 5 mg/kg dl-sotalol (group-3 antiarrhythmic agent) was orally administered to the same animals, and electrocardiogram was measured.
# [2] = system: chronic atrioventricular block monkey model; test: Examination for onset of Torsades de pointes (TdP) with dl-sotalol administration; format: in vivo, cynomolgus monkey; settings: five animals
# Protocol: A Holter electrocardiograph was attached to each of five animals of the chronic atrioventricular block monkey model obtained in Example 1; 1, 3, 5 or 10 mg/kg dl-sotalol was orally administered to each animal, and electrocardiogram after administration was monitored.
structure (smiles),measurement,setting,value
CC(C)NCC(O)c1ccc(NS(C)(=O)=O)cc1 (racemic) [dl-sotalol],time after administration with statistically significant QTc action compared to the solvent group,[1],1 to 4 h
same,QTc interval prolongation,"[1]; Holter electrocardiograph for 24 hours, compared to the solvent group",QTc interval prolongation was observed
same,animals in which TdP occurred,[2]; 5 mg/kg orally,4 of the 5 animals
same,animals in which TdP occurred,[2]; 10 mg/kg orally,all animals
